Assay: Particle size distribution of the drug substance
Type: physicochemical
From the text: Tapentadol is predominantly rectangular or rod-shaped crystalline powder. […] The D10 can be as low as 5 microns while the D99 can be as high as 500 microns. Although, the particle size distribution of the drug substance is controlled during crystallization, milling or micronizing the API to less than a micron size would not affect processability, as described herein, or the attribute of the drug product. Other APIs with similar properties such as Tramadol are expected to have a similar behavior.

**Q.** What does the source list for CC[C@@H](c1cccc(O)c1)[C@@H](C)CN(C)C [Tapentadol]?
**A.** Particle size distribution D10: ≥ 5 microns; Particle size distribution D99: ≤ 500 microns
